In patent US6573218B1, “Fused-benzene derivatives useful as herbicides” (Ishihara Sangyo Kaisha, Ltd., priority 1998, dated 2003):

Tests used:
Assay type in all cases: in vivo
[1] = system: upland rice (Ory0a sp., var.Tebonnet, RICE); assay: Post-emerge greenhouse crop damage test
Text: (§1) A standard greenhouse herbicide activity screening system was used to evaluate the herbicidal efficacy and crop safety of these test compounds. Seven broadleaf weed species including redroot pigweed (Amaranthus retroflexus, AMARE), velvetleaf (Abutilon theophrasti, ABUTH), sicklepod (Cassia obtusifolia, CASOB), ivyleaf morningglory (Ipomoea hederacea, IPOHE), lambsquarters (Chenopodium album, CHEAL), common ragweed (Ambrosia artemisiifolia L., AMBEL), and cocklebur (Xanthium strumarium, XANST) were used as test species. Four grass weed species including green foxtail (Setaria viridis, SETVI), barnyardgrass (Echinochloa crus-galli, ECHCG), johnsongrass (Sorghum halepense, SORHA), and large crabgrass (Digitaria sanguinalis, DIGSA) were also used. In addition, three crop species, field corn (Zea mays L., var. Dekalb 527, CORN), soybean (Glycine max L., var. Pella 86, SOY), and upland rice (Ory0a sp., var.Tebonnet, RICE) were included.
(§2) All plants were grown in 10 cm square plastic pots which were filled with a sandy loam soil mix. For pre-emerge tests, seeds were planted one day prior to application of the test compounds. For post-emerge tests, seeds were planted 8-21 days prior to the test to allow emergence and good foliage development prior to application of the test substances. At the time of the post-emerge application, plants of all species were usually at the 2-3 leaf stage of development.
(§3) All test compounds were dissolved in acetone and applied to the test units in a volume of 187 l/ha. Test materials were applied at rates ranging from 15 g ai/ha to 1000 g ai/ha using a track sprayer equipped with a TJ8001E even flow flat fan spray nozzle. Plants were arranged on a shelf so that the top of the canopy (post-emerge) or top of the soil surface (pre-emerge) was 40-45 cm below the nozzle. Pressurized air was used to force the test solution through the nozzle as it was mechanically advanced over the top of all test plants/pots. This application simulates a typical commercial field herbicide application.
(§4) In the post-emerge test, a commercial non-ionic surfactant was also included (0.25% v/v) to enhance wetting of the leaf surfaces of target plants. Immediately after application, test units of the pre-emerge applications were watered at the soil surface to incorporate the test materials.
(§5) At 14 days after application of the test materials, phytotoxicity ratings were recorded. A rating scale of 0-100 was used as previously described in Research Methods in Weed Science, 2nd edition, B. Truelove, Ed., Southern Weed Science Society, Auburn University, Auburn, Ala., 1977. Briefly, “0” corresponds to no damage and “100” corresponds to complete death of all plants in the test unit. This scale was used both to determine efficacy against weed species and damage to crop species. Herbicide activity data for various compounds of this invention, which are shown by compound No. in Tables 1-14, are shown in Tables 16 and 17.

[2] = system: soybean (Glycine max L., var. Pella 86, SOY); assay: Post-emerge greenhouse crop damage test
Text: as §1, §2, §3, §4, §5

[3] = system: field corn (Zea mays L., var. Dekalb 527, CORN); assay: Post-emerge greenhouse crop damage test
Text: as §1, §2, §3, §4, §5

[4] = system: sicklepod (Cassia obtusifolia, CASOB); assay: Post-emerge greenhouse herbicide test; details: 14 days after application
Text: as §1, §2, §3, §4, §5

[5] = system: lambsquarters (Chenopodium album, CHEAL); assay: Post-emerge greenhouse herbicide test; details: 14 days after application
Text: as §1, §2, §3, §4, §5

[6] = system: barnyardgrass (Echinochloa crus-galli, ECHCG); assay: Post-emerge greenhouse herbicide test; details: 14 days after application
Text: as §1, §2, §3, §4, §5

[7] = system: large crabgrass (Digitaria sanguinalis, DIGSA); assay: Post-emerge greenhouse herbicide test; details: 14 days after application
Text: as §1, §2, §3, §4, §5

[8] = system: velvetleaf (Abutilon theophrasti, ABUTH); assay: Post-emerge greenhouse herbicide test; details: 14 days after application
Text: as §1, §2, §3, §4, §5

[9] = system: green foxtail (Setaria viridis, SETVI); assay: Post-emerge greenhouse herbicide test; details: 14 days after application
Text: as §1, §2, §3, §4, §5

[10] = system: redroot pigweed (Amaranthus retroflexus, AMARE); assay: Post-emerge greenhouse herbicide test; details: 14 days after application
Text: as §1, §2, §3, §4, §5

[11] = system: ivyleaf morningglory (Ipomoea hederacea, IPOHE); assay: Post-emerge greenhouse herbicide test; details: 14 days after application
Text: as §1, §2, §3, §4, §5

[12] = system: upland rice (Ory0a sp., var.Tebonnet, RICE); assay: Pre-emerge greenhouse crop damage test
Text: as §1, §2, §3, §4, §5

[13] = system: soybean (Glycine max L., var. Pella 86, SOY); assay: Pre-emerge greenhouse crop damage test
Text: as §1, §2, §3, §4, §5

[14] = system: field corn (Zea mays L., var. Dekalb 527, CORN); assay: Pre-emerge greenhouse crop damage test
Text: as §1, §2, §3, §4, §5

[15] = system: sicklepod (Cassia obtusifolia, CASOB); assay: Pre-emerge greenhouse herbicide test; details: 14 days after application, scale 0-100 (0 no damage, 100 complete death)
Text: as §1, §2, §3, §4, §5

[16] = system: lambsquarters (Chenopodium album, CHEAL); assay: Pre-emerge greenhouse herbicide test; details: 14 days after application, scale 0-100 (0 no damage, 100 complete death)
Text: as §1, §2, §3, §4, §5

[17] = system: barnyardgrass (Echinochloa crus-galli, ECHCG); assay: Pre-emerge greenhouse herbicide test; details: 14 days after application, scale 0-100 (0 no damage, 100 complete death)
Text: as §1, §2, §3, §4, §5

[18] = system: large crabgrass (Digitaria sanguinalis, DIGSA); assay: Pre-emerge greenhouse herbicide test; details: 14 days after application, scale 0-100 (0 no damage, 100 complete death)
Text: as §1, §2, §3, §4, §5

[19] = system: velvetleaf (Abutilon theophrasti, ABUTH); assay: Pre-emerge greenhouse herbicide test; details: 14 days after application, scale 0-100 (0 no damage, 100 complete death)
Text: as §1, §2, §3, §4, §5

[20] = system: green foxtail (Setaria viridis, SETVI); assay: Pre-emerge greenhouse herbicide test; details: 14 days after application, scale 0-100 (0 no damage, 100 complete death)
Text: as §1, §2, §3, §4, §5

[21] = system: johnsongrass (Sorghum halepense, SORHA); assay: Pre-emerge greenhouse herbicide test; details: 250 g ai/ha, 14 days after application, scale 0-100 (0 no damage, 100 complete death)
Text: as §1, §2, §3, §4, §5

[22] = system: redroot pigweed (Amaranthus retroflexus, AMARE); assay: Pre-emerge greenhouse herbicide test; details: 14 days after application, scale 0-100 (0 no damage, 100 complete death)
Text: as §1, §2, §3, §4, §5

[23] = system: ivyleaf morningglory (Ipomoea hederacea, IPOHE); assay: Pre-emerge greenhouse herbicide test; details: 14 days after application, scale 0-100 (0 no damage, 100 complete death)
Text: as §1, §2, §3, §4, §5

[24] = 250 g ai/ha, post-emerge, 14 days after application
[25] = pre-emerge, 250 g ai/ha, 14 days after application, scale 0-100 (0 no damage, 100 complete death)
[26] = var. Tebonnet, upland rice (Ory0a sp.), in vivo, 14 days
[27] = var. Pella 86, soybean (Glycine max L.), in vivo, 14 days
[28] = var. Dekalb 527, field corn (Zea mays L.), in vivo, 14 days

CCc1nc2c(N3C(=O)C4CCCCN4C3=S)c(F)cc(Cl)c2o1 (single isomer, unassigned) [Compound 7-6, 8-(7-Chloro-2-ethyl-5-fluorobenzoxazol-4-yl)-1,8-diazobicyclo[4,3,0]nonane-7-one-9-thione]
Post-emerge crop damage RICE (phytotoxicity rating 0-100) [1, 24]: 10 | Post-emerge crop damage SOY (phytotoxicity rating 0-100) ([2]; in vivo): 50 | Post-emerge crop damage CORN (phytotoxicity rating 0-100) [3, 24]: 30 | Post-emerge Herbicidal Activity CASOB (phytotoxicity rating 0-100) ([4]; 250 g ai/ha): 30 | Post-emerge Herbicidal Activity CHEAL (phytotoxicity rating 0-100) ([5]; 250 g ai/ha): 60 | Post-emerge Herbicidal Activity ECHCG (phytotoxicity rating 0-100) ([6]; 250 g ai/ha): 0 | Post-emerge Herbicidal Activity DIGSA (phytotoxicity rating 0-100) ([7]; 250 g ai/ha): 0 | Post-emerge Herbicidal Activity ABUTH (phytotoxicity rating 0-100) ([8]; 250 g ai/ha): 90 | Post-emerge Herbicidal Activity SETVI (phytotoxicity rating 0-100) ([9]; 250 g ai/ha): 10 | Post-emerge Herbicidal Activity AMARE (phytotoxicity rating 0-100) ([10]; 250 g ai/ha): 30 | Post-emerge Herbicidal Activity IPOHE (phytotoxicity rating 0-100) ([11]; 250 g ai/ha): 70

Nn1c(C(F)(F)F)cc(=O)n(-c2c(F)cc(Cl)c3c2NC(=O)CO3)c1=O [Compound 4-2]
Post-emerge crop damage RICE (phytotoxicity rating 0-100) [1, 24]: 90 | Post-emerge crop damage SOY (phytotoxicity rating 0-100) [2, 24]: 100 | Post-emerge crop damage CORN (phytotoxicity rating 0-100) [3, 24]: 90 | Pre-emerge Herbicidal Activity RICE (crop damage rating) ([12]; in vivo): 90 | Pre-emerge Herbicidal Activity SOY (crop damage rating) [13, 25]: 95 | Pre-emerge Herbicidal Activity CORN (crop damage rating) [14, 25]: 100 | Pre-emerge Herbicidal Activity CASOB (phytotoxicity rating) ([15]; 250 g ai/ha): 100 | Pre-emerge Herbicidal Activity CHEAL (phytotoxicity rating) ([16]; 250 g ai/ha): 100 | Pre-emerge Herbicidal Activity ECHCG (phytotoxicity rating) ([17]; 250 g ai/ha): 80 | Pre-emerge Herbicidal Activity DIGSA (phytotoxicity rating) ([18]; 250 g ai/ha): 70 | Pre-emerge Herbicidal Activity ABUTH (phytotoxicity rating) ([19]; 250 g ai/ha): 100 | Pre-emerge Herbicidal Activity SETVI (phytotoxicity rating) ([20]; 250 g ai/ha): 80 | Pre-emerge Herbicidal Activity SORHA (phytotoxicity rating) [21]: 65 | Pre-emerge Herbicidal Activity AMARE (phytotoxicity rating) ([22]; 250 g ai/ha): 100 | Pre-emerge Herbicidal Activity IPOHE (phytotoxicity rating) ([23]; 250 g ai/ha): 100 | Post-emerge Herbicidal Activity CASOB (phytotoxicity rating 0-100) ([4]; 250 g ai/ha): 90 | Post-emerge Herbicidal Activity CHEAL (phytotoxicity rating 0-100) ([5]; 250 g ai/ha): 100 | Post-emerge Herbicidal Activity ECHCG (phytotoxicity rating 0-100) ([6]; 250 g ai/ha): 60 | Post-emerge Herbicidal Activity DIGSA (phytotoxicity rating 0-100) ([7]; 250 g ai/ha): 20 | Post-emerge Herbicidal Activity ABUTH (phytotoxicity rating 0-100) ([8]; 250 g ai/ha): 100 | Post-emerge Herbicidal Activity SETVI (phytotoxicity rating 0-100) ([9]; 250 g ai/ha): 40 | Post-emerge Herbicidal Activity AMARE (phytotoxicity rating 0-100) ([10]; 250 g ai/ha): 100 | Post-emerge Herbicidal Activity IPOHE (phytotoxicity rating 0-100) ([11]; 250 g ai/ha): 100

Cn1c(C(F)(F)F)cc(=O)n(-c2ccc(Cl)c3ccccc23)c1=O [Compound 5-1, 3-(4-Chloronaphthalen-1-yl)-1-methyl-6-trifluoromethyl-2,4(1H,3H)-pyrimidindione]
Post-emerge crop damage RICE (phytotoxicity rating 0-100) [1, 26]: 0 | Post-emerge crop damage SOY (phytotoxicity rating 0-100) [2, 27]: 0 | Post-emerge crop damage CORN (phytotoxicity rating 0-100) [3, 28]: 0 | Pre-emerge Herbicidal Activity RICE (crop damage rating) [12, 26]: 70 | Pre-emerge Herbicidal Activity SOY (crop damage rating) [13, 27]: 70 | Pre-emerge Herbicidal Activity CORN (crop damage rating) [14, 28]: 70 | Pre-emerge Herbicidal Activity CASOB (phytotoxicity rating) ([15]; 500 g ai/ha): 60 | Pre-emerge Herbicidal Activity CHEAL (phytotoxicity rating) ([16]; 500 g ai/ha): 100 | Pre-emerge Herbicidal Activity ECHCG (phytotoxicity rating) ([17]; 500 g ai/ha): 60 | Pre-emerge Herbicidal Activity DIGSA (phytotoxicity rating) ([18]; 500 g ai/ha): 98 | Pre-emerge Herbicidal Activity ABUTH (phytotoxicity rating) ([19]; 500 g ai/ha): 100 | Pre-emerge Herbicidal Activity SETVI (phytotoxicity rating) ([20]; 500 g ai/ha): 100 | Pre-emerge Herbicidal Activity AMARE (phytotoxicity rating) ([22]; 500 g ai/ha): 100 | Pre-emerge Herbicidal Activity IPOHE (phytotoxicity rating) ([23]; 500 g ai/ha): 60 | Post-emerge Herbicidal Activity CASOB (phytotoxicity rating 0-100) ([4]; 500 g ai/ha): 60 | Post-emerge Herbicidal Activity CHEAL (phytotoxicity rating 0-100) ([5]; 500 g ai/ha): 100 | Post-emerge Herbicidal Activity ECHCG (phytotoxicity rating 0-100) ([6]; 500 g ai/ha): 70 | Post-emerge Herbicidal Activity DIGSA (phytotoxicity rating 0-100) ([7]; 500 g ai/ha): 60 | Post-emerge Herbicidal Activity ABUTH (phytotoxicity rating 0-100) ([8]; 500 g ai/ha): 100 | Post-emerge Herbicidal Activity SETVI (phytotoxicity rating 0-100) ([9]; 500 g ai/ha): 100 | Post-emerge Herbicidal Activity AMARE (phytotoxicity rating 0-100) ([10]; 500 g ai/ha): 100 | Post-emerge Herbicidal Activity IPOHE (phytotoxicity rating 0-100) ([11]; 500 g ai/ha): 60

CCc1nc2c(N3C(=O)C4CCCCN4C3=O)c(F)cc(Cl)c2o1 (stereo not shown) [Compound 7-9]
Pre-emerge Herbicidal Activity RICE (crop damage rating) [12, 25]: 10 | Pre-emerge Herbicidal Activity SOY (crop damage rating) [13, 25]: 15 | Pre-emerge Herbicidal Activity CORN (crop damage rating) [14, 25]: 0 | Pre-emerge Herbicidal Activity CASOB (phytotoxicity rating) ([15]; 250 g ai/ha): 10 | Pre-emerge Herbicidal Activity CHEAL (phytotoxicity rating) ([16]; 250 g ai/ha): 100 | Pre-emerge Herbicidal Activity ECHCG (phytotoxicity rating) ([17]; 250 g ai/ha): 10 | Pre-emerge Herbicidal Activity DIGSA (phytotoxicity rating) ([18]; 250 g ai/ha): 30 | Pre-emerge Herbicidal Activity ABUTH (phytotoxicity rating) ([19]; 250 g ai/ha): 50 | Pre-emerge Herbicidal Activity SETVI (phytotoxicity rating) ([20]; 250 g ai/ha): 40 | Pre-emerge Herbicidal Activity AMARE (phytotoxicity rating) ([22]; 250 g ai/ha): 100 | Pre-emerge Herbicidal Activity IPOHE (phytotoxicity rating) ([23]; 250 g ai/ha): 20
